Data as given in patent US20140148454A1, “SUBSTITUTED AMINO-ACRYLCARBOXAMIDES AS KCNQ2/3 MODULATORS” (GRÜNENTHAL GMBH, priority 2012, published 2014).

Molecular target: T1, KCNQ2/3 channels (Homo sapiens, UniProt O43525+O43526)
T1 construct: expressed in transfected cells; host or cells: CHO-K1 cells kept under selection antibiotics
Experiment: Fluorescence assay using a voltage sensitive dye (fluorimetry)
Type: cell-based
Settings: CHO-K1 cells expressing KCNQ2/3 channels; for Emax: relative to retigabine = 100%, read-out: Fluorimetry % efficacy (retigabine = 100%); for EC50: voltage-sensitive dye, read-out: Fluorimetry EC50/IC50
Experimental: Method I. Fluorescence Assay Using a Voltage Sensitive Dye (Fluorimetry) […] CHO-K1 cells expressing KCNQ2/3 channels are cultivated adherently at 37° C., 5% CO2 and 95% humidity in cell culture bottles (e.g. 80 cm^2 TC flasks, Nunc) with DMEM-high glucose (Sigma Aldrich, D7777) including 10% FCS (PAN Biotech, e.g. 3302-P270521) or alternatively MEM Alpha Medium (1×, liquid, Invitrogen, #22571), 10% fetal calf serum (FCS) (Invitrogen, #10270-106, heat-inactivated) and the necessary selection antibiotics.
Before being sown out for the measurements, the cells are washed with 1×DPBS buffer Ca^2+/Mg^2+-free (e.g. Invitrogen, #14190-094) and detached from the bottom of the culture vessel by using Accutase (PAA Laboratories, #L11-007) (incubation with Accutase for 15 min at 37° C.). The cell number is determined using a CASY™ cell counter (TCC, Scharfe System). Depending on the optimal density for each individual cell line, 20,000-30,000 cells/well/100 μl are seeded onto 96-well Corning™ CeIIBIND™ assay plates (Flat Clear Bottom Black Polystyrene Microplates, #3340). Freshly seeded cells are then left to settle for one hour at room temperature, followed by incubation for 24 hours at 37° C., 5% CO2 and 95% humidity.
The voltage-sensitive fluorescent dye from the Membrane Potential Assay Kit (Red™ Bulk format part R8123 for FLIPR, MDS Analytical Technologies™) is prepared by dissolving the contents of one vessel Membrane Potential Assay Kit Red Component A in 200 ml of extracellular buffer (ES buffer, 120 mM NaCl, 1 mM KCl, 10 mM HEPES, 2 mM CaCl2, 2 mM MgCl2, 10 mM glucose; pH 7.4). After removal of the nutrient medium, the cells are washed once with 200 μl of ES buffer, then loaded for 45 min at room temperature in 100 μl of dye solution in the dark.
Fluorescence measurements are carried out in a BMG Labtech FLUOstar™, BMG Labtech NOVOstar™ or BMG Labtech POLARstar™ instrument (525 nm excitation, 560 nm emission, Bottom Read mode). After incubation with the dye, 50 μl of the test substances in the desired concentrations, or 50 μl of ES buffer for control purposes, are applied to the wells of the assay plate and incubated for 30 min at room temperature while being shielded from light. The fluorescence intensity of the dye is then measured for 5 min and the fluorescence value F1 of each well is thus determined at a given, constant time. 15 μl of a KCl solution are then added to each well (final concentration of potassium ions 92 mM). The change in fluorescence intensity is subsequently monitored until all the relevant values have been obtained (mainly 5-30 min). At a given time post KCl application, a fluorescence value F2 is determined, in this case at the time of the fluorescence peak.
For calculation, the fluorescence intensity F2 is corrected for the fluorescence intensity F1, and the activity (ΔF/F) of the target compound on the potassium channel is determined as follows:
In order to determine whether a substance has agonistic activity, is determined by adding to the well only the buffer solution instead of the test substance, determining the value F1K of the fluorescence intensity, adding the potassium ions as described above, and measuring a value F2K of the fluorescence intensity. F2K and F1K are then calculated as follows: […]
A substance has an agonistic activity on the potassium channel if it is possible to conclude that a target compound has agonistic activity if Calculations of EC50 and IC50 values are carried out with the aid of ‘Prism v4.0’ software (GraphPad Software™).

Emax	EC50	SMILES
137%	136 nM	CCSc1nc(N2CCOCC2)nc(C)c1C(=O)NCc1ccc(Cl)cc1 [Example 1, N-[(4-Chlorophenyl)-methyl]-4-ethylsulfanyl-6-methyl-2-morpholin-4-yl-pyrimidine-5-carboxylic acid amide]
147%	315 nM	COc1nc(N2CCOCC2)nc(OC)c1C(=O)NCc1ccc(Cl)cc1 [Example 2, N-[(4-Chlorophenyl)-methyl]-4,6-dimethoxy-2-morpholin-4-yl-pyrimidine-5-carboxylic acid amide]
171%	564 nM	CCSc1cc(N2CCOCC2)nc(C)c1C(=O)NCc1ccc(Cl)cc1 [Example 3, N-[(4-Chlorophenyl)-methyl]-4-ethylsulfanyl-2-methyl-6-morpholin-4-yl-pyridine-3-carboxylic acid amide]
218%	1350 nM	CCOc1cc(N2CCOCC2)nc(C)c1C(=O)NCCCC(C)(C)C [Example 5, N-(4,4-Dimethyl-pentyl)-4-ethoxy-2-methyl-6-morpholin-4-yl-pyridine-3-carboxylic acid amide]
109%	482 nM	CC(C)c1nc(N2CCOCC2)cnc1C(=O)NCc1ccc(Cl)cc1 [Example 7, N-[(4-Chlorophenyl)-methyl]-3-isopropyl-5-morpholin-4-yl-pyrazine-2-carboxylic acid amide]
104%	379 nM	CC(C)c1nc(N(C)C2CCOCC2)sc1C(=O)NC(C)c1cccc(OC(F)(F)F)c1 (centres unmarked) [Example 9, 4-Isopropyl-2-(methyl-tetrahydro-pyran-4-yl-amino)-N-[1-[3-(trifluoromethyloxy)-phenyl]ethyl]-thiazole-5-carboxylic acid amide]
165%	140 nM	CCSc1nc(N2CCOCC2)nc(C)c1C(=O)NCc1cccc(F)c1 [Example 10, 4-Ethylsulfanyl-N-[(3-fluorophenyl)-methyl]-6-methyl-2-morpholin-4-yl-pyrimidine-5-carboxylic acid amide]
145%	1470 nM	CCSc1cc(N2CCOCC2)nc(C)c1C(=O)NCc1ccc(F)cc1 [Example 12, 4-Ethylsulfanyl-N-[(4-fluorophenyl)-methyl]-2-methyl-6-morpholin-4-yl-pyridine-3-carboxylic acid amide]
241%	319 nM	CCSc1cc(N2CCOCC2)nc(C)c1C(=O)NCCCC(C)(C)C [Example 13, N-(4,4-Dimethyl-pentyl)-4-ethylsulfanyl-2-methyl-6-morpholin-4-yl-pyridine-3-carboxylic acid amide]
176%	194 nM	CCSc1cc(N2CCOC[C@H]2C)nc(C)c1C(=O)NCc1ccc(Cl)cc1 [Example 14, N-[(4-Chlorophenyl)-methyl]-4-ethylsulfanyl-2-methyl-6-[(3R)-3-methyl-morpholin-4-yl]-pyridine-3-carboxylic acid amide]
247%	82 nM	CCSc1cc(N2CCOC[C@H]2C)nc(C)c1C(=O)NCCCC(C)(C)C [Example 15, N-(4,4-Dimethyl-pentyl)-4-ethylsulfanyl-2-methyl-6-[(3R)-3-methyl-morpholin-4-yl]-pyridine-3-carboxylic acid amide]
178%	1420 nM	Cc1nc(N2CCOCC2)cc(C2CC2)c1C(=O)NCc1ccc(Cl)cc1 [Example 16, N-[(4-Chlorophenyl)-methyl]-4-cyclopropyl-2-methyl-6-morpholin-4-yl-pyridine-3-carboxylic acid amide]
180%	499 nM	Cc1nc(N2CCOCC2)cc(C(C)C)c1C(=O)NCc1ccc(Cl)cc1 [Example 17, N-[(4-Chlorophenyl)-methyl]-4-isopropyl-2-methyl-6-morpholin-4-yl-pyridine-3-carboxylic acid amide]
88%	217 nM	CCC(C)c1nc(N2CCOCC2)cnc1C(=O)NCc1ccc(Cl)cc1 (centres unmarked) [Example 20, N-[(4-Chlorophenyl)-methyl]-3-(1-methyl-propyl)-5-morpholin-4-yl-pyrazine-2-carboxylic acid amide]
132%	1050 nM	CCC(C)c1nc(N2CCOCC2)cnc1C(=O)NCCC1CCCC1 (centres unmarked) [Example 21, N-(2-Cyclopentyl-ethyl)-3-(1-methyl-propyl)-5-morpholin-4-yl-pyrazine-2-carboxylic acid amide]
78%	459 nM	CC(C)c1nc(N(C)CC2CCOCC2)sc1C(=O)NC(C)c1cccc(OC(F)(F)F)c1 (centres unmarked) [Example 22, 4-Isopropyl-2-[methyl-(tetrahydro-pyran-4-yl-methyl)-amino]-N-[1-[3-(trifluoromethyloxy)-phenyl]-ethyl]-thiazole-5-carboxylic acid amide]
98%	1140 nM	CC(C)c1nc(N(C)C2CCOCC2)sc1C(=O)NCc1ccc(Cl)cc1 [Example 23, N-[(4-Chlorophenyl)-methyl]-4-isopropyl-2-(methyl-tetrahydro-pyran-4-yl-amino)-thiazole-5-carboxylic acid amide]
48%	1260 nM	CC(C)c1nc(N2CCOCC2)sc1C(=O)NCc1ccc(Cl)cc1 [Example 25, N-[(4-Chlorophenyl)-methyl]-4-isopropyl-2-morpholin-4-yl-thiazole-5-carboxylic acid amide]
131%	1260 nM	CC(NC(=O)c1sc(N(C)C2CCOCC2)nc1C(F)(F)F)c1cccc(OC(F)(F)F)c1 (centres unmarked) [Example 35, 2-(Methyl-tetrahydro-pyran-4-yl-amino)-4-(trifluoromethyl)-N-[1-[3-(trifluoromethyloxy)-phenyl]-ethyl]-thiazole-5-carboxylic acid amide]
125%	1100 nM	CN(c1nc(C(F)(F)F)c(C(=O)NCc2cccc(OC(F)(F)F)c2)s1)C1CCOCC1 [Example 36, 2-(Methyl-tetrahydro-pyran-4-yl-amino)-4-(trifluoromethyl)-N-[[3-(trifluoromethyloxy)-phenyl]-methyl]-thiazole-5-carboxylic acid amide]
102%	1260 nM	CN(c1nc(C(F)(F)F)c(C(=O)NCc2ccc(Cl)cc2)s1)C1CCOCC1 [Example 38, N-[(4-Chlorophenyl)-methyl]-2-(methyl-tetrahydro-pyran-4-yl-amino)-4-(trifluoromethyl)-thiazole-5-carboxylic acid amide]
78%	1280 nM	CC(NC(=O)c1sc(N2CCOCC2)nc1C(F)(F)F)c1cccc(OC(F)(F)F)c1 (centres unmarked) [Example 40, 2-Morpholin-4-yl-4-(trifluoromethyl)-N-[1-[3-(trifluoromethyloxy)-phenyl]ethyl]-thiazole-5-carboxylic acid amide]
